From the supplement of paper PMC12076712

Key:
Test in all cases: pIC50, kinobeads binding competition
CSK = CSK (UniProt P41240)
How it was run: (§1)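 Live Jurkat cells were treated with nine compound concentrations (top 30 μM, 1:4 steps) or DMSO for 60 min at 37 °C before lysis. Alternatively, Jurkat lysate or a 1:1:1:1 HEK293/K-562/HepG2/placenta lysate mix was incubated with nine concentrations (top 30 μM, 1:5 steps) for 60 min at 4 °C. Kinobeads-bound proteins were digested and quantified by TMT10 LC-MS/MS. pIC50 came from logistic dose-response fits (R drc package) of fold changes versus DMSO, in biological duplicates.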

FER = FER (UniProt P16591)
How it was run: as §1

HIPK2 = HIPK2 (UniProt Q9H2X6)
How it was run: as §1

JAK1 = JAK1 (UniProt P23458)
How it was run: as §1

MAPK14 = MAPK14 (UniProt Q16539)
How it was run: as §1

NLK = target: T1, NLK (UniProt Q9UBE8)
T1 sequence (whole entry): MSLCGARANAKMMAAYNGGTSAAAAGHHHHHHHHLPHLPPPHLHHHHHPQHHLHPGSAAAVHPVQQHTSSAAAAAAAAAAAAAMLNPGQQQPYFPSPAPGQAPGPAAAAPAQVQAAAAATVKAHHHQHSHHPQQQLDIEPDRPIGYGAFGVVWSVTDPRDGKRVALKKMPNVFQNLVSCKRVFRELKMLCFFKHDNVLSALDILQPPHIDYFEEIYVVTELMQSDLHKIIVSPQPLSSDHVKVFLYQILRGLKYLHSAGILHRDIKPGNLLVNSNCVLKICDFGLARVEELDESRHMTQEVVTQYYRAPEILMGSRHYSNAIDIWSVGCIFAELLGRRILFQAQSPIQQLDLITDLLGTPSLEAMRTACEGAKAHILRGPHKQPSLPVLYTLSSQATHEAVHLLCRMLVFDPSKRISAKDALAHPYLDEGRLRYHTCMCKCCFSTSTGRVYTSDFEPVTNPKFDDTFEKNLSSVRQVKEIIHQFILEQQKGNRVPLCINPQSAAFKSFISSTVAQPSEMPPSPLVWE
How it was run: as §1

PIM3 = PIM3 (UniProt Q86V86)
How it was run: as §1

PKMYT1 = target: T2, PKMYT1 (UniProt Q99640)
T2 sequence (whole entry): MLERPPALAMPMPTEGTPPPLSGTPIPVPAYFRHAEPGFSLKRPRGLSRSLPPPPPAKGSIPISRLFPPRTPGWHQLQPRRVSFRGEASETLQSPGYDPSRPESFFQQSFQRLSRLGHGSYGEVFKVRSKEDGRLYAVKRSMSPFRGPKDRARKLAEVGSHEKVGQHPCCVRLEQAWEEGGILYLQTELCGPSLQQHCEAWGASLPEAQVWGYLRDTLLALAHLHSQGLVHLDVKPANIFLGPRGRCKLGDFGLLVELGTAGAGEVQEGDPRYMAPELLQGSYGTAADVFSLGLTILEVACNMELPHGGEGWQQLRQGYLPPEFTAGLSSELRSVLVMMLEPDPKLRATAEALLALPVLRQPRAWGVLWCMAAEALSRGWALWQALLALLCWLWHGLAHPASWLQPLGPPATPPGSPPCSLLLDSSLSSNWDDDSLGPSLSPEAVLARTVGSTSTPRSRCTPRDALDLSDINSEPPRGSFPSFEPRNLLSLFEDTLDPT
How it was run: as §1

TAOK2 = target: T3, TAOK2 (UniProt Q9UL54)
T3 sequence (whole entry): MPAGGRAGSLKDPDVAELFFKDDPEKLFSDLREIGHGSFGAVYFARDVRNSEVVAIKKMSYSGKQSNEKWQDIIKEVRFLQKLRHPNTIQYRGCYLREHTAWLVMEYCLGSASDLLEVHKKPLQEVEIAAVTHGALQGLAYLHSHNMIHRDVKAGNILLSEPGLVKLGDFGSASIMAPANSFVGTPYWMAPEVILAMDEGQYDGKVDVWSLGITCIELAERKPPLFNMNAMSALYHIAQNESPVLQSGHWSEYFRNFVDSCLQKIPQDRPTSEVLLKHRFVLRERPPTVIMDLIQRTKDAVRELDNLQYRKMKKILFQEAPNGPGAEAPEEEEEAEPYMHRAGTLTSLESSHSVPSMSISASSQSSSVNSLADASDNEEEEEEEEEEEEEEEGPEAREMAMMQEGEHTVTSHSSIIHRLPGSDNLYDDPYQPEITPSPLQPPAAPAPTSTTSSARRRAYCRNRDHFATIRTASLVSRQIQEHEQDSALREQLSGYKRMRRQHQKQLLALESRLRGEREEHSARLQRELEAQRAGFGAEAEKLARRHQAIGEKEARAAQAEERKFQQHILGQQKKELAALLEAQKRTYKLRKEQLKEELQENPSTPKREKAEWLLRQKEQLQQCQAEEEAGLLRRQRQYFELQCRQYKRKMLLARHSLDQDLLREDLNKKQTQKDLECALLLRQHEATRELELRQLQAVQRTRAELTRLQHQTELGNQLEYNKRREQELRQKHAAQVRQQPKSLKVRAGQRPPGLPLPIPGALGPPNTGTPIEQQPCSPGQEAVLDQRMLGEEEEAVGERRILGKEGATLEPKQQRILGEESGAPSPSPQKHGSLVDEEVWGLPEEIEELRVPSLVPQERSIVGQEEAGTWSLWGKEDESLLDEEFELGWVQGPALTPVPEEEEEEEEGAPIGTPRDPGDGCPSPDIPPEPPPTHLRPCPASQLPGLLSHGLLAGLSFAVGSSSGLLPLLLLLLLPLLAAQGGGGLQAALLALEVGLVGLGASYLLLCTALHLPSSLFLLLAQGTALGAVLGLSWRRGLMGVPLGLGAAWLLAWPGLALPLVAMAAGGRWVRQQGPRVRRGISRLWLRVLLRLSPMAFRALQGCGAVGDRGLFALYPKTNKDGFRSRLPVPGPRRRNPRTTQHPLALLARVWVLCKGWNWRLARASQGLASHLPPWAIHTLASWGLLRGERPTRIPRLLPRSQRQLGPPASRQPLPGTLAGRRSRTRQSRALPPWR
How it was run: as §1

UniProt P19784 = target: UniProt P19784
How it was run: as §1

UniProt Q9BQI3 = target: UniProt Q9BQI3
How it was run: as §1

| pIC50 (CSK; cell material: Lysate mix) | pIC50 (FER; cell material: Lysate mix) | pIC50 (HIPK2; cell material: Lysate mix) | pIC50 (JAK1; cell material: Lysate mix) | pIC50 (MAPK14; cell material: Lysate mix) | pIC50 (NLK; cell material: Lysate mix) | pIC50 (PIM3; cell material: Lysate mix) | pIC50 (PKMYT1; cell material: Lysate mix) | pIC50 (TAOK2; cell material: Lysate mix) | pIC50 (UniProt P19784; cell material: Lysate mix) | pIC50 (UniProt Q9BQI3; cell material: Lysate mix) | pIC50 (NLK; cell material: Jurkat cells) | pIC50 (PIM3; cell material: Jurkat cells) | pIC50 (TAOK2; cell material: Jurkat cells) | Compound | pIC50 (CSK; cell material: Jurkat cells) | pIC50 (CSK; cell material: Jurkat lysate) | pIC50 (FER; cell material: Jurkat cells) | pIC50 (FER; cell material: Jurkat lysate) | pIC50 (HIPK2; cell material: Jurkat cells) | pIC50 (HIPK2; cell material: Jurkat lysate) | pIC50 (JAK1; cell material: Jurkat cells) | pIC50 (JAK1; cell material: Jurkat lysate) | pIC50 (MAPK14; cell material: Jurkat cells) | pIC50 (MAPK14; cell material: Jurkat lysate) | pIC50 (NLK; cell material: Jurkat lysate) | pIC50 (PIM3; cell material: Jurkat lysate) | pIC50 (PKMYT1; cell material: Jurkat cells) | pIC50 (PKMYT1; cell material: Jurkat lysate) | pIC50 (TAOK2; cell material: Jurkat lysate) | pIC50 (UniProt P19784; cell material: Jurkat cells) | pIC50 (UniProt P19784; cell material: Jurkat lysate) | pIC50 (UniProt Q9BQI3; cell material: Jurkat cells) | pIC50 (UniProt Q9BQI3; cell material: Jurkat lysate) |
| --- | --- | --- | --- | --- | --- | --- | --- | --- | --- | --- | --- | --- | --- | --- | --- | --- | --- | --- | --- | --- | --- | --- | --- | --- | --- | --- | --- | --- | --- | --- | --- | --- | --- |
| < 4.52 | 4.78 | 4.98 | < 4.52 | < 4.52 | < 4.52 | < 4.52 | < 4.52 | < 4.52 | 4.78 | < 4.52 |  |  |  | C#CCNC(=O)c1cc(Nc2cc(C)[nH]n2)nc(N2CCN(Cc3ccc(S(=O)(=O)F)cc3)CC2)n1 |  |  |  |  |  |  |  |  |  |  |  |  |  |  |  |  |  |  |  |
| < 4.52 | < 4.52 | < 4.52 | < 4.52 | < 4.52 | < 4.52 | < 4.52 | < 4.52 | 5.33 | < 4.52 | < 4.52 | < 4.52 | 5.49 | 5.96 | O=C(NCCNC(=O)c1cc(Nc2cc(C3CC3)[nH]n2)nc(N2CCN(Cc3ccc(S(=O)(=O)F)cc3)CC2)n1)OC1CC/C=C/CCC1 (stereo not given) | < 4.52 | < 4.52 | 5.6 | < 4.52 | 5.49 | < 4.52 | < 4.52 | < 4.52 | < 4.52 | < 4.52 | < 4.52 | < 4.52 |  | < 4.52 | 5.08 | 4.7 | < 4.52 | < 4.52 | < 4.52 |
| < 4.52 | 5.62 | 5.72 | < 4.52 | < 4.52 | < 4.52 | < 4.52 | < 4.52 | < 4.52 | 5.47 | 5.06 |  |  |  | CCNC(=O)c1cc(Nc2cc(C3CC3)[nH]n2)nc(N2CCN(Cc3ccc(S(=O)(=O)F)cc3)CC2)n1 |  |  |  |  |  |  |  |  |  |  |  |  |  |  |  |  |  |  |  |
| < 4.52 | 4.72 | 4.77 | < 4.52 | < 4.52 | < 4.52 | < 4.52 | < 4.52 | < 4.52 | 5.1 | < 4.52 |  |  |  | CCNC(=O)c1cc(Nc2cc(C)[nH]n2)nc(N2CCN(Cc3ccc(S(=O)(=O)F)cc3)CC2)n1 |  |  |  |  |  |  |  |  |  |  |  |  |  |  |  |  |  |  |  |
| < 4.52 | < 4.52 | < 4.52 | < 4.52 | < 4.52 | < 4.52 | < 4.52 | < 4.52 | 5.15 | < 4.52 | < 4.52 |  |  |  | Cc1cc(Nc2cc(C(=O)NCCNC(=O)OC3CC/C=C/CCC3)nc(N3CCN(Cc4ccc(S(=O)(=O)F)cc4)CC3)n2)n[nH]1 (stereo not given) |  |  |  |  |  |  |  |  |  |  |  |  |  |  |  |  |  |  |  |

| Compound | pIC50 (CSK; cell material: Lysate mix) | pIC50 (FER; cell material: Lysate mix) | pIC50 (HIPK2; cell material: Lysate mix) | pIC50 (JAK1; cell material: Lysate mix) | pIC50 (MAPK14; cell material: Lysate mix) | pIC50 (NLK; cell material: Lysate mix) | pIC50 (PIM3; cell material: Lysate mix) | pIC50 (PKMYT1; cell material: Lysate mix) | pIC50 (TAOK2; cell material: Lysate mix) | pIC50 (UniProt P19784; cell material: Lysate mix) | pIC50 (UniProt Q9BQI3; cell material: Lysate mix) | pIC50 (NLK; cell material: Jurkat cells) | pIC50 (PIM3; cell material: Jurkat cells) | pIC50 (TAOK2; cell material: Jurkat cells) | pIC50 (CSK; cell material: Jurkat cells) | pIC50 (CSK; cell material: Jurkat lysate) | pIC50 (FER; cell material: Jurkat cells) | pIC50 (FER; cell material: Jurkat lysate) | pIC50 (HIPK2; cell material: Jurkat cells) | pIC50 (HIPK2; cell material: Jurkat lysate) | pIC50 (JAK1; cell material: Jurkat cells) | pIC50 (JAK1; cell material: Jurkat lysate) | pIC50 (MAPK14; cell material: Jurkat cells) | pIC50 (MAPK14; cell material: Jurkat lysate) | pIC50 (NLK; cell material: Jurkat lysate) | pIC50 (PIM3; cell material: Jurkat lysate) | pIC50 (PKMYT1; cell material: Jurkat cells) | pIC50 (PKMYT1; cell material: Jurkat lysate) | pIC50 (TAOK2; cell material: Jurkat lysate) | pIC50 (UniProt P19784; cell material: Jurkat cells) | pIC50 (UniProt P19784; cell material: Jurkat lysate) | pIC50 (UniProt Q9BQI3; cell material: Jurkat cells) | pIC50 (UniProt Q9BQI3; cell material: Jurkat lysate) |
| --- | --- | --- | --- | --- | --- | --- | --- | --- | --- | --- | --- | --- | --- | --- | --- | --- | --- | --- | --- | --- | --- | --- | --- | --- | --- | --- | --- | --- | --- | --- | --- | --- | --- |
| C#CCNC(=O)c1cc(Nc2cc(C3CC3)[nH]n2)nc(N2CCN(Cc3ccc(S(=O)(=O)F)cc3)CC2)n1 | < 4.52 | 5.92 | 5.92 | < 4.52 | < 4.52 | < 4.52 | < 4.52 | < 4.52 | < 4.52 | 4.96 |  |  |  |  | 5.55 | < 4.52 | 6.2 | 5.44 | 6.12 | 5.54 | 5.18 | < 4.52 | < 4.52 | < 4.52 | < 4.52 | < 4.52 | 5.67 | < 4.52 | < 4.52 | 5.66 | < 4.52 | 5.34 | < 4.52 |
